In patent US8222260B2, “Substituted 6-anilinopurine derivatives as inhibitors of cytokinin oxidase/dehydrogenase and preparations containing these derivatives” (Univerzita Palackego V Olomouci, priority 2007, dated 2012):
Entries after “also recorded” stand apart in the source; their conditions may differ.

Assays:
[1] = system: Human diploid fibroblasts BJ; assay: Viability of human diploid fibroblasts by MTT assay; type: cell-based; conditions: 0-25 μM, 72 hours, BJ passage 19
Procedure: MTT is a standard colorimetric assay for measurement of proliferation and survival of the cells. Yellow MTT is reduced into violet formazan in metabolically active cells. The amount of the resulting formazan is measured by spectrophotometry. Human diploid fibroblasts BJ (passage 19) were seeded in 96-well plate (5.000 cells per well). After 6 hours, the cultivation medium (DMEM containing 5 g/l glucose, 2 mM glutamine, 100 U/ml penicillin, 100 μg/ml streptomycin and 10% fetal calf serum) was removed and fresh medium containing a test compound in concentrations 0-25 μM was added. Each concentration was tested in 5 replicates. MTT was added to the cells after 72 hours into final concentration of 0.5 mg/ml. Incubation time was 3 hours.

[2] = system: Human diploid fibroblasts SNF25; assay: In vitro toxicity by evaluation of growth curve; type: cell-based; conditions: 0-12.5 μM, 12 days, SNF25 passage 27
Procedure: (§1) Human diploid fibroblasts SNF25 (passage 27) were seeded in 24-well plate (10.000 cells/well). The cultivation medium (DMEM containing 5 g/l glucose, 2 mM glutamin, 100 U/ml penicillin, 100 μg/ml streptomycin and 10% fetal calf serum) was removed and replaced with the cultivation medium containing the tested compound in concentration range of 0-12.5 μM. Each concentration was tested in triplicate. The cell number was counted during next 12 days.

[3] = system: Senescent human diploid fibroblasts SNF25; assay: Effect on senescent human diploid fibroblasts (cell number); type: cell-based; conditions: 0-12.5 μM, days 7 and 14, SNF25 passage 53
Procedure: as §1, with “Senescent human” for “Human”, “53)” for “27)”, “[…]” for “μg/ml”, “test” for “the tested”, “numbers were determined on days 7 and 14.” for “number was counted during next 12 days.”

[4] = system: erytroid leukemia cell line K-562; assay: Calcein AM cytotoxicity assay; type: cell-based, human; conditions: Homo sapiens, K562, 72 hours
Procedure, shortened: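 Cells seeded at 2.500-30.000 per well, pre-incubated 24 h, then exposed 72 h at 37 °C to six 3-fold dilutions (top 166.6 μM), in triplicate. Calcein AM added to 1 μg/ml for 1 h; fluorescence gives growth inhibition, GI50 taken from dose-response curves.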

[5] = system: Transgenic 35S:AtCKX1 Arabidopsis seedlings; assay: Foliar spray of CKX overproducing Arabidopsis seedlings grown in soil, phenotype complementation; type: in vivo; conditions: 10 μM sprayed every second day for 1 month
Procedure: (§2) Transgenic 35S:AtCKX1 Arabidopsis and 35S:AtCKX1 and 35S:AtCKX2 tobacco seedlings grown in soil in the greenhouse were systematically treated with 10 μM of compound 12. Areal parts of the wild type and transgenic seedlings were sprayed every second day for 1 month with aqueous solution of compound 12 containing 0.01% Silwet L-77 wetting agent.

[6] = system: 35S:AtCKX1 and 35S:AtCKX2 tobacco seedlings; assay: Foliar spray of CKX overproducing tobacco seedlings grown in soil, phenotype complementation and root system; type: in vivo
Procedure: as §2

[7] = system: CKX1 overproducing Arabidopsis seedlings; assay: CKX1 overproducing Arabidopsis seedlings grown in vitro on MS medium, phenotype reversion; type: in vivo; conditions: in vitro on MS medium containing 0.1 μM compound
[8] = system: WT Arabidopsis plants; assay: Prolonged treatment of WT Arabidopsis plants, flowering; type: in vivo
Procedure: as §2
Flowers had aborted anthers and were sterile.

[9] = system: Rat C6 glioma (ATCC No. CCL107); assay: Anti-inflammatory activity: isoproterenol-induced cAMP synthesis (ELISA); type: cell-based; conditions: cAMP after 30 min, induced by (−)-isoproterenol
Procedure: Anti-inflammatory activity of several of the substituted 6-anilinopurine derivatives of this invention was determined; kinetin was also evaluated as a control. Rat C6 glioma (ATCC No. CCL107) was cultivated in monolayer in serum-free chemically defined medium containing Ham's F10/minimal essential medium (1:1 v/v), 2 mM L-glutamine, 1% (v/v) minimal essential medium vitamins (100×), 1% (v/v) minimal essential medium nonessential amino acids (100×), 100 U/ml penicillin, […], and 30 nM sodium selenite. Incubation was performed at 37° C. in a 100% humidified atmosphere. The assays were performed in the logarithmic growth phase at a density of 2.5×10^5 cells/cm^2. Intracellular cAMP synthesis was induced by addition of 5 mM (−)-isoproterenol; various amounts of test compounds were added at the same time as the (−)-isoproterenol. After 30 min incubation, the cellular amount of cAMP was determined using ELISA (cAMP-enzyme immunoassay kit from Amersham). The I50 values were determined from the dose-response curve in duplicate.

SMILES: Clc1nc(Nc2ccccc2)c2[nH]cnc2n1 [Compound 1, 2-Chloro-6-anilinopurine]
- viability of cells (MTT) [1]: not toxic for human diploid fibroblasts
- growth curve (cell number) [2]: not toxic against human diploid fibroblasts
- cell number (cell survival) [3]: does not exert significant negative effect on cell survival

SMILES: Clc1ccc(Nc2nc(Cl)nc3[nH]cnc23)cc1 [Compound 4]
- GI50 [4]: > 167 µM

SMILES: Fc1cccc(Nc2nc(Cl)nc3nc[nH]c23)c1 [Compound 6, 2-Chloro-6-(3-fluoroanilino)purine]
- GI50 [4]: > 167 µM

SMILES: COc1cccc(Nc2nc(Cl)nc3nc[nH]c23)c1 [Compound 12, 2-Chloro-6-(3-methoxyanilino)purine]
- complementation of wild-type phenotype (release from growth inhibition) [5]: restauration of wild type phenotype
- complementation of wild-type phenotype (release from growth inhibition) ([6]; 35S:AtCKX1 and 35S:AtCKX2 tobacco, 10 μM sprayed every second day for 1 month): restauration of wild type phenotype
- effect of foliar application on root system ([6]; transgenic tobaccos, foliar application, 10 μM): enhancement of the root system
- reversion of WT phenotype [7]: reversion of WT phenotype appeared
- effect on flowering [8]: altered development of flowers and inhibition of fertilisation

SMILES: Oc1cccc(Nc2nc(F)nc3[nH]cnc23)c1 [Compound 48]
- GI50 [4]: > 167 µM

SMILES: c1coc(CNc2ncnc3nc[nH]c23)c1 [Kinetin, 6-furfurylaminopurine, reference compound]
- Effect (anti-inflammatory activity) [9]: inactive; also recorded: Not active
